Consider four compounds from ChEMBL document CHEMBL4433196, “A novel delocalized lipophilic cation-chlorambucil conjugate inhibits P-glycoprotein in HepG2/ADM cells” (Bioorg Med Chem, 2017).

pIC50: −log10 of the molar value. Calls of active or inactive are those of the source. The calls are words filed in the database; no cut-off is given here.

In one data set the test system is HepG2. Put plainly: Cytotoxicity against human HepG2 cells assessed as cell growth inhibition incubated for 72 hrs by MTT assay. The data set is classed as functional, cell-based. The settings on record: HepG2, 72 h.
A short description of data set [1]: Cytotoxicity against human HepG2/ADM cells assessed as cell growth inhibition incubated for 72 hrs by MTT assay. Type of data set: functional, cell-based. In general terms: Tetrazolium assays rely on reduction of a dye to a coloured formazan, in cell work by metabolically active cells.
In a further data set the test system is L02. Nature of the data set: Cytotoxicity against human L02 cells assessed as cell growth inhibition incubated for 72 hrs by MTT assay. The data set is classed as cell-based. The following applies: L02, 72 h.
A further data set deals with NIH3T3. Put plainly: Cytotoxicity against mouse NIH/3T3 cells assessed as cell growth inhibition incubated for 72 hrs by MTT assay. Type of data set: cell-based. The following applies: NIH3T3, 72 h.
The nature of data set [2]: Induction of apoptosis in human HepG2/ADM cells assessed as early apoptotic cells at 20 uM incubated for 72 hrs by Annexin V-FITC/SYTOX Red staining based flow cytometric analysis (reference value: 5.52%). The data set is classed as functional. In general terms: Flow cytometry measures light scatter and fluorescence of single cells or particles in a stream.
A short description of data set [3]: Induction of apoptosis in human HepG2/ADM cells assessed as viable cell at 20 uM incubated for 72 hrs by Annexin V-FITC/SYTOX Red staining based flow cytometric analysis (reference value: 94.4%). Type of data set: functional.
Data set [4] in a line: Induction of apoptosis in human HepG2/ADM cells assessed as late apoptotic cells at 20 uM incubated for 72 hrs by Annexin V-FITC/SYTOX Red staining based flow cytometric analysis (Rvb =0.04%). Type of data set: functional.
Data set [5] in a line: Induction of apoptosis in human HepG2/ADM cells assessed as necrotic cells at 20 uM incubated for 72 hrs by Annexin V-FITC/SYTOX Red staining based flow cytometric analysis (Rvb =0%). Type of data set: functional.
Data set [6] can be described thus: Induction of apoptosis in human HepG2/ADM cells assessed as viable cells at 20 uM incubated for 72 hrs in presence of ADM by Annexin V-FITC/SYTOX Red staining based flow cytometric analysis (reference value: 88.7%). The settings on record: read-out: Activity. Type of data set: functional.
Data set [7] is described as follows: Induction of apoptosis in human HepG2/ADM cells assessed as early apoptotic cells at 20 uM incubated for 72 hrs in presence of ADM by Annexin V-FITC/SYTOX Red staining based flow cytometric analysis (reference value: 8.58%). The data set is classed as functional.
Data set [8] can be described thus: Induction of apoptosis in human HepG2/ADM cells assessed as apoptotic cells at 20 uM incubated for 72 hrs in presence of ADM by Annexin V-FITC/SYTOX Red staining based flow cytometric analysis (reference value: 2.60%). Type of data set: functional.
A short description of data set [9]: Induction of apoptosis in human HepG2/ADM cells assessed as necrotic cells at 20 uM incubated for 72 hrs in presence of ADM by Annexin V-FITC/SYTOX Red staining based flow cytometric analysis (Rvb =0.1%). Type of data set: functional.
Data set [10] is described as follows: Drug accumulation in human HepG2 cells at 10 uM incubated for 3 hrs by flow cytometric analysis. The data set is classed as ADME, cell-based. The following applies: hepg2, 3 h.
A short description of data set [11]: Drug accumulation in human L02 cells at 10 uM incubated for 3 hrs by flow cytometric analysis. Type of data set: ADME, cell-based. The settings on record: l02, 3 h.
A short description of data set [12]: Drug localization in cellular membrane of human HepG2/ADM cells at 20 uM incubated for 2 hrs by mitotracker 633 staining based inverted confocal microscope. Type of data set: ADME, cell membranes.
Data set [13] is described as follows: Drug localization in cellular membrane of human HepG2 cells at 20 uM incubated for 2 hrs by mitotracker 633 staining based inverted confocal microscope. The data set is classed as ADME, cell membranes. The settings on record: hepg2, 2 h.
Data set [14] can be described thus: Drug localization in mitochondria of human HepG2/ADM cells at 20 uM incubated for 2 hrs by mitotracker 633 staining based inverted confocal microscope. The data set is classed as ADME.
Data set [15] is described as follows: Drug localization in mitochondria of human HepG2 cells at 20 uM incubated for 2 hrs by mitotracker 633 staining based inverted confocal microscope. Type of data set: ADME. The following applies: hepg2, 2 h.
Data set [16] addresses T1, ATP-dependent translocase ABCB1 (Homo sapiens, UniProt P08183). Nature of the data set: Inhibition of Pgp in human HepG2/ADM cells at 20 uM incubated for 2 hrs by mitotracker 633 staining based inverted confocal microscopy. Type of data set: cell-based.
Data set [17] relates to HepG2/Adm. Put plainly: Downregulation of MDR1 mRNA in human HepG2/ADM cells at 5 to 20 uM incubated for 24 hrs by real time qPCR analysis. Type of data set: functional, cell-based. Background: In qPCR the cycle at which signal appears reflects the starting amount.
The subject of data set [18] is HepG2/Adm. Nature of the data set: Downregulation of Pgp in human HepG2/ADM cells at 5 to 20 uM incubated for 48 hrs by Western blot analysis. The data set is classed as functional, cell-based.
The subject of data set [19] is HepG2/Adm. Put plainly: Downregulation of Pgp in human HepG2/ADM cells at 20 uM incubated for 48 hrs by flow cytometric analysis. The data set is classed as functional, cell-based.
Data set [20] has as its target T1, ATP-dependent translocase ABCB1. Nature of the data set: Inhibition of Pgp in human HepG2/ADM cells assessed as increase in intracellular ADM level at 20 uM incubated for 12 hrs by flow cytometric analysis. The data set is classed as cell-based.
For data set [21] the target is unchanged. Put plainly: Inhibition of Pgp in human HepG2/ADM cells assessed as increase in intracellular ADM level at 20 uM incubated for 2 hrs by mitotracker 633 staining based inverted confocal microscopic analysis. The data set is classed as cell-based.
The nature of data set [22]: Potency index, ratio of IC50 for human HepG2/ADM cells to IC50 for human HepG2 cells. The data set is classed as functional.

T1 sequence (P08183 whole entry): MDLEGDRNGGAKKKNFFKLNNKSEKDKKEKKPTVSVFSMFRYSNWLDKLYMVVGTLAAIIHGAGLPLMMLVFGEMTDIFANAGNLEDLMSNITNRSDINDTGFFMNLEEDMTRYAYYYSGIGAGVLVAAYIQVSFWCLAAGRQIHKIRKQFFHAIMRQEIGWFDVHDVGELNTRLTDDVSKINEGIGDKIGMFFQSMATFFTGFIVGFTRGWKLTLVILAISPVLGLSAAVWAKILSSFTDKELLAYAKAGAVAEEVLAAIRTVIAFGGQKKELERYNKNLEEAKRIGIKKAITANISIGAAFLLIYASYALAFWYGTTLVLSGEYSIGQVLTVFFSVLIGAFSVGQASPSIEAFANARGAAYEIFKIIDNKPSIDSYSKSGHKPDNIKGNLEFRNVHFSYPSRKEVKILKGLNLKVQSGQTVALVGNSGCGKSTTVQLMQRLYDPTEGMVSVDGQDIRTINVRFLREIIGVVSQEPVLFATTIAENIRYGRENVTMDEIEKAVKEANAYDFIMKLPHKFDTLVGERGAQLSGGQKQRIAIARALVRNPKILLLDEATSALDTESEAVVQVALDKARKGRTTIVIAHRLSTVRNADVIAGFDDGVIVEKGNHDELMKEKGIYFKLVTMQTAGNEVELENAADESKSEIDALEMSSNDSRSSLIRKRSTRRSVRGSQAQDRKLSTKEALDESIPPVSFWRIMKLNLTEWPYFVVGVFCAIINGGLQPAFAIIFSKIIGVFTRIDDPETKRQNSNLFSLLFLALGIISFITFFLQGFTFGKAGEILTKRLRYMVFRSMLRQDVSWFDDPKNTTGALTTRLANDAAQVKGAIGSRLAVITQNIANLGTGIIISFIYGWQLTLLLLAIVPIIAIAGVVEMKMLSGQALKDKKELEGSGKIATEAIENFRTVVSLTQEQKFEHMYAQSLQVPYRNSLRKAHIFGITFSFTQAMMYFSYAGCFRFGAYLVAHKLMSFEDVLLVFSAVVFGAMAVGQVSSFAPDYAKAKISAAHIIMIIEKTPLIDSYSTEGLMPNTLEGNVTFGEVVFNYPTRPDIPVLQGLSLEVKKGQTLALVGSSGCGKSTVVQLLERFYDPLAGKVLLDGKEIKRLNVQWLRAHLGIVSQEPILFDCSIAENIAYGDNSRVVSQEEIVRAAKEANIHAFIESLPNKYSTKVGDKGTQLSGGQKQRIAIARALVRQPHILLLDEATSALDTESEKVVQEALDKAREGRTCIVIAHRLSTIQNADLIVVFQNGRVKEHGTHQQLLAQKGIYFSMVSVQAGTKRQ

Consider `Cl.NCCC[n+]1ccc(/C=C/c2c[nH]c3ccc(F)cc23)cc1.[Br-]`, for which the pIC50 is 3.99 in the data set with HepG2, 3.99 in data set [1], less than 3.22 in the data set on L02 and less than 3.22 with NIH3T3. Also, the Activity was 8.72% in [2]; 88.4% in data set [3]; 2.66% in data set [4]; 0.25% in data set [5]; 26.2% in data set [7]; 17% in [8]. In data set [9], the Activity is listed as 1.21%. The viability at 20 µM in data set [6] was determined as 55.6%.

With `O=C(O)CCCc1ccc(N(CCCl)CCCl)cc1` [CHLORAMBUCIL], the pIC50 in the data set on HepG2 was 3.72; in data set [1], 3.53; in the data set with L02 it was less than 3.22; in the data set with NIH3T3 it was less than 3.22. Moreover, the Activity in data set [2] is on record as 9.08%; in [3], 90.9%; in data set [4], 0.01%; in [5] it was 0.01%; in data set [7], 12.4%; in [8], 0.05%. Besides, the Activity in data set [9] is 0%. Further, the viability at 20 µM in data set [6] was determined as 87.5%.

Take `O=C(CCCc1ccc(N(CCCl)CCCl)cc1)NCCC[n+]1ccc(/C=C/c2c[nH]c3ccc(F)cc23)cc1.[Br-]`: the pIC50 in the data set on HepG2 is 4.22; in [1] it was 4.22; in the data set with L02 it was less than 3.22; with NIH3T3, less than 3.22. Besides, the Drug uptake entry is “Active” in [10]; “Not Active” in data set [11]; “Active” in [12]; “Active” in data set [13]; “Active” in [14]; “Active” in [15]. In addition, the “inhibition (INH)” value in [16], in [20] and in data set [21] was “Active” in each case. Moreover, the outcome in the data set on HepG2/Adm [17], in the data set on HepG2/Adm [18] and in the data set with HepG2/Adm [19] was Active. The Activity in data set [2] was 14.2%; in data set [3], 85.7%; in data set [4], 0.09%; in data set [5] it was 0.01%; in data set [7], 64%; in data set [8] it was 2.38%. Also, the Activity in [9] came out at 0%. For the same compound, in data set [6], the viability at 20 µM was 33.5%.

In the case of `COc1cccc2c1C(=O)c1c(O)c3c(c(O)c1C2=O)C[C@@](O)(C(=O)CO)C[C@@H]3O[C@H]1C[C@H](N)[C@H](O)[C@H](C)O1.Cl` [DOXORUBICIN HYDROCHLORIDE], the negative logarithm of the IC50 (pIC50) in the data set on HepG2 is 6.17; in data set [1], 3.84. In addition, the “Ratio IC50” value in data set [22] came out at 215.4.

For orientation: pIC50 means the IC50 on a negative log10 scale, so that one unit is a factor of ten.
